Values joined by “and” are separate entries in the source; they are usually repeats but may differ in a detail not shown here. Equal values may be shown once.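 All cell lines were grown in 96-well plates and treated with compound for 48 hours. GI50 marks 50% less growth. At the TGI there is no net growth.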
What was measured:
Assay in all cases: NCI-60 cell line screen, 48 h
MALME-3M melanoma = test system: MALME-3M melanoma
MDA-MB-435 = test system: MDA-MB-435
OVCAR-3 ovarian = test system: OVCAR-3 ovarian
SNB-75 CNS = test system: SNB-75 CNS
BT-549 breast = test system: BT-549 breast
NCI-H23 lung = test system: NCI-H23 lung
SK-MEL-28 melanoma = test system: SK-MEL-28 melanoma
HL-60(TB) leukemia = test system: HL-60(TB) leukemia
786-0 renal = test system: 786-0 renal
DU-145 prostate = test system: DU-145 prostate

Compound	TGI (MALME-3M melanoma) [µM]	TGI (MDA-MB-435) [µM]	TGI (OVCAR-3 ovarian) [µM]	TGI (SNB-75 CNS) [µM]	TGI (BT-549 breast) [µM]	TGI (NCI-H23 lung) [µM]	TGI (SK-MEL-28 melanoma) [µM]	TGI (HL-60(TB) leukemia)	TGI (786-0 renal) [µM]	TGI (DU-145 prostate) [µM]	GI50 (HL-60(TB) leukemia) [nM]	GI50 (MALME-3M melanoma) [nM]	GI50 (MDA-MB-435) [nM]	GI50 (OVCAR-3 ovarian) [nM]	GI50 (SNB-75 CNS)	GI50 (BT-549 breast) [nM]	GI50 (NCI-H23 lung) [nM]	GI50 (SK-MEL-28 melanoma) [nM]	GI50 (DU-145 prostate) [nM]
CC(C)(C)OC(=O)NCCC(N)=S	> 100	> 100	> 100	> 100	> 100	> 100	> 100	> 100 µM	> 100	> 100	–	–	–	–	–	–	–	–	–
C[C@@H]1S[C@H](c2ccccc2F)N2Cc3ccccc3N=C12	54.2	88.5	> 100	97.4	> 100	> 100	> 100	52.3 µM	63.1	> 100	–	–	–	–	–	–	–	–	–
Oc1[nH]c2ccc(Br)cc2c1N=NC(=S)Nc1ccc(F)cc1	23.8	13.6	29	30	2.7	6.96	39.8	6.84 µM	22.4	22.3	–	–	–	–	–	–	–	–	–
CCc1c[n+]([O-])c(C)cc1[N+](=O)[O-]	97.3	> 100	> 100	> 100	> 100	> 100	> 100	> 100 µM	> 100	> 100	–	–	–	–	–	–	–	–	–
COc1cc2nc(-c3cccs3)oc(=O)c2cc1OC	> 100	> 100	> 100	> 100	> 100	> 100	> 100	> 100 µM	> 100	> 100	–	–	–	–	–	–	–	–	–
COC(=O)CN1c2nc(C#N)c(C#N)nc2N(CC(=O)OC)c2nc(C#N)c(C#N)nc21	3.01	> 100	18.8	30.4	11.3	> 29.8	> 100	5.61 µM	5.21	18.3	–	–	–	–	–	–	–	–	–
COC(=O)CCc1cc(OC)c2c(c1)[C@H](C(=O)OC)[C@@H](c1ccc(O)c(OC)c1)O2	> 100	39.5	> 100	> 100	> 100	> 100	> 100	36 µM	> 100	> 100	–	–	–	–	–	–	–	–	–
CC(=O)Oc1cc(C(F)(F)F)ccc1C(=O)OC1(C)OC(=O)c2ccc(C(F)(F)F)cc2O1 (stereo not drawn)	> 100	> 100	> 100	> 100	> 100	> 100	> 100	> 100 µM	> 100	> 100	–	–	–	–	–	–	–	–	–
S=c1[nH]c2ccc(Br)cc2c(=S)s1	> 100	67.2	> 100	93	> 100	82.6	> 100	62.4 µM	> 100	> 100	–	–	–	–	–	–	–	–	–
CCCCn1cnc2c(c(CC#N)nn2-c2ccccc2)c1=N	> 100	> 100	> 100	> 100	> 100	> 100	> 100	> 100 µM	> 100	> 100	–	–	–	–	–	–	–	–	–
CC(=O)O[C@H]1C(=O)[C@@]2(C)[C@H]([C@H](OC(=O)c3ccc(F)cc3)[C@]3(O)C[C@H](OC(=O)[C@H](O)[C@@H](NC(=O)c4ccccc4)c4ccccc4)C(C)=C1C3(C)C)[C@]1(OC(C)=O)CO[C@@H]1C[C@@H]2O	> 25	0.0049	0.0437	0.659	> 25	> 25	> 25	0.0149 µM	> 25	2.31	–	–	–	–	–	–	–	–	–
CCCCNC(=S)N/N=C/c1cccc(C)n1	> 100	> 100	> 100	> 100	> 100	> 100	> 100	> 100 µM	> 100	> 100	–	–	–	–	–	–	–	–	–
COC(C)(C)[C@@H](O)[C@H]1C[C@H](C)[C@@]2(CC[C@]3(C)[C@@H]2CC[C@@H]2[C@@]4(C)CC[C@@H](OC(C)=O)C(C)(C)[C@@H]4C[C@@H](OC4OC(COC(C)=O)C(O)C(O)C4O)[C@]23C)O1 (stereo partly drawn)	23.4	12.3	15.3	16.5	15.2	25.8	20.4	4.63 µM	18.7	15.7	–	–	–	–	–	–	–	–	–
Nc1ccc(-c2nc3ccccc3s2)cc1C(F)(F)F	29.4	30.2	30.2	27.9	26.4	28	33.9	36.9 µM	26.6	29.2	–	–	–	–	–	–	–	–	–
COc1ccc(/C=C2\C[C@H]3[C@@H]4CCC5=C/C(=N/O)CC[C@]5(C)[C@H]4CC[C@]3(C)\C2=N\O)cc1OC	> 100	> 100	> 100	> 100	> 100	> 100	> 100	76.8 µM	> 100	> 100	–	–	–	–	–	–	–	–	–
O=C(O)C(SC1=NNC2(C(=O)N1)c1ccccc1-c1ccccc12)SC1=NNC2(C(=O)N1)c1ccccc1-c1ccccc12	> 10	> 10	> 10	> 10	> 10	> 10	> 10	> 10 µM	> 10	> 10	–	–	–	–	–	–	–	–	–

Compound	TGI (MALME-3M melanoma) [µM]	TGI (MDA-MB-435) [µM]	TGI (OVCAR-3 ovarian) [µM]	TGI (SNB-75 CNS) [µM]	TGI (BT-549 breast) [µM]	TGI (NCI-H23 lung) [µM]	TGI (SK-MEL-28 melanoma) [µM]	TGI (HL-60(TB) leukemia)	TGI (786-0 renal) [µM]	TGI (DU-145 prostate) [µM]	GI50 (HL-60(TB) leukemia) [nM]	GI50 (MALME-3M melanoma) [nM]	GI50 (MDA-MB-435) [nM]	GI50 (OVCAR-3 ovarian) [nM]	GI50 (SNB-75 CNS)	GI50 (BT-549 breast) [nM]	GI50 (NCI-H23 lung) [nM]	GI50 (SK-MEL-28 melanoma) [nM]	GI50 (DU-145 prostate) [nM]
NCCCN1CCN(CCCNc2ccc3nnn4c5ccccc5c(=O)c2c34)CC1	39.1	60.1	> 100	48.3	22.6	33.3	> 100	> 100 µM	33.1	57.6	–	–	–	–	–	–	–	–	–
Nc1nc(Cl)cc(NCC2(CO)CCC(CCc3ccccc3)C2)n1 (stereo not drawn)	33.3	28.3	28.9	39.4	30.3	25.1	37.3	33.1 µM	31.9	30.2	–	–	–	–	–	–	–	–	–
ClC(Cl)=C1C(=C(Cl)Cl)C(Cl)(Cl)C1(Cl)Cl	5.9	14	14.1	13.5	13.4	3.57	4.06	0.66 µM and 2.11 µM	2.81	23.4	259	–	–	–	–	–	–	–	–
C[C@]12CC[C@@H]3c4ccc(O)cc4CC[C@H]3[C@@H]1C/C(=C\c1ccncc1)[C@@H]2O	30.9	> 100	30.9	23.6	14.2	22.5	> 100	44.9 µM	80.9	> 100	–	–	–	–	–	–	–	–	–
CC(=O)c1cccn1/C=C(\OC(=O)OC(C)(C)C)c1ccc[nH]1	> 100	> 100	> 100	67.2	> 100	> 100	> 100	98.1 µM	> 100	> 100	–	–	–	–	–	–	–	–	–
C/C1=C\CC[C@@]2(C)O[C@@H]2C[C@@H](C2(C)CO2)CC/C(C)=C/CC1 (stereo partly drawn)	32.5	46.4	48.9	93.7	42.8	48.8	57.6	71.9 µM	31.8	48.8	–	–	–	–	–	–	–	–	–
COc1cc(-c2cc(=O)c3cc4c(=O)cc(-c5cc(OC)c(OC)c(OC)c5)oc4cc3o2)cc(OC)c1OC	> 100	> 100	> 100	32.3	86.2	> 67.8	> 100	> 100 µM	39	> 100	–	–	–	–	–	–	–	–	–
COC(=O)c1c2c(cc3c1CCC3)CCC2	> 100	> 100	> 100	> 100	> 100	> 100	> 100	38.4 µM	> 100	> 100	–	–	–	–	–	–	–	–	–
O=C(CNc1c(Cl)cccc1Cl)NC1C=Cc2ccc(S(=O)(=O)Nc3c(Cl)cccc3Cl)cc2C1=O (stereo not drawn)	> 100	> 100	> 100	> 100	> 100	> 100	> 100	> 100 µM	> 100	> 100	–	–	–	–	–	–	–	–	–
Cc1cn(-c2cc(C(=O)Nc3cccc(-n4ccc5c(NC(=O)c6ccccc6)nccc54)c3)cc(C(F)(F)F)c2)cn1	9.66	0.635	1.03	3.27	10	19.9	5.41	2.5 µM	–	2.2	451	502	217	313	0.252 µM	720	1060	546	525
COc1nc2ncc([C@@H](OC(C)=O)[C@@H](COC(C)=O)OC(C)=O)nc2c(=O)[nH]1	> 100	> 100	> 100	> 100	> 100	–	> 100	> 100 µM	> 100	> 100	–	–	–	–	> 100 µM and 11.3 µM	–	–	–	–
Clc1ccc(CSCCc2ccncc2)cc1Cl	42.4	49.5	33.1	77.6	42.6	51.1	50.8	40 µM	33.1	> 100	–	–	–	–	–	–	–	–	–
CC(C)=CCC/C(C)=C/COC(C)(C)C1=CCC(C)CC1 (stereo not drawn) (tested in a mixture with another compound)	> 100	> 100	> 100	> 100	> 100	> 100	> 100	50.9 µM	> 100	> 100	–	–	–	–	–	–	–	–	–
CSc1c(C#N)c(N)n(-c2ccc(C)cc2)c(=O)c1C#N	> 100	> 100	> 100	> 100	> 100	> 100	> 100	> 100 µM	> 100	> 100	–	–	–	–	–	–	–	–	–
O=c1[nH]cnc2c1ncn2[C@@H]1C[C@@H]1CO	> 100	> 100	–	> 100	> 100	> 100	> 100	> 100 µM	> 100	> 100	–	–	–	–	–	–	–	–	–
